From ChEMBL document CHEMBL1201862, “PubChem BioAssay data set” (2004)
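Following 48 hours of exposure in 96-well plates, responses at five concentrations were used to interpolate endpoints linearly. GI50: concentration for 50% inhibition of growth.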 Activity calls are given as the source filed them. No stated cut-off is given here; in the data, active = GI50 up to about 1.1 µM and inactive = higher.

Experiments:
Experiment in all cases: NCI tumour cell line growth inhibition, 48 h
HL-60 = system: HL-60
TK-10 = system: TK-10
SK-MEL-5 = system: SK-MEL-5
U-251 = system: U-251
COLO 205 = system: COLO 205
SNB-19 = system: SNB-19
ACHN = system: ACHN
MDA-N = system: MDA-N
HCT-116 = system: HCT-116
SF-295 = system: SF-295
MOLT-4 = system: MOLT-4
NCI-H226 = system: NCI-H226
HOP-62 = system: HOP-62
T47D = system: T47D
A549 = system: A549
MCF7 = system: MCF7
HCC 2998 = system: HCC 2998
OVCAR-3 = system: OVCAR-3
KM12 = system: KM12
SNB-75 = system: SNB-75
SF-539 = system: SF-539
OVCAR-4 = system: OVCAR-4
MDA-MB-435 = system: MDA-MB-435
SK-MEL-2 = system: SK-MEL-2
UO-31 = system: UO-31
DU-145 = system: DU-145
RPMI-8226 = system: RPMI-8226
OVCAR-5 = system: OVCAR-5
UACC-62 = system: UACC-62
EKVX = system: EKVX
SF-268 = system: SF-268
NCI/ADR-RES = system: NCI/ADR-RES
Hs-578T = system: Hs-578T
NCI-H23 = system: NCI-H23
786-0 = system: 786-0
A498 = system: A498
SW-620 = system: SW-620
SK-OV-3 = system: SK-OV-3
K562 = system: K562
SK-MEL-28 = system: SK-MEL-28
NCI-H460 = system: NCI-H460
BT-549 = system: BT-549
MDA-MB-231 = system: MDA-MB-231
UACC-257 = system: UACC-257
IGROV-1 = system: IGROV-1
M14 = system: M14
SN12C = system: SN12C
HT-29 = system: HT-29
HOP-92 = system: HOP-92
OVCAR-8 = system: OVCAR-8
RXF 393 = system: RXF 393
NCI-H522 = system: NCI-H522
HCT-15 = system: HCT-15
CAKI-1 = system: CAKI-1
SR = system: SR
Malme-3M = system: Malme-3M
LOX IMVI = system: LOX IMVI
CCRF-CEM = system: CCRF-CEM

How did the GI50 (HL-60) turn out when Cc1ccc(S(=O)(=O)N2CCCSCCN(S(=O)(=O)c3ccc(C)cc3)CCCSCC2)cc1 was run?
The GI50 was > 100 µM (inactive).

What about the GI50 (TK-10) of the same compound?
The GI50 was > 100 µM (inactive).

And the GI50 (SK-MEL-5)?
Its GI50 is > 100 µM (inactive).

What about the GI50 (U-251) of the same compound?
The GI50 was > 100 µM (inactive).

And the GI50 (COLO 205)?
Its GI50 is > 100 µM (inactive).

And the GI50 (SNB-19)?
The GI50 was > 100 µM (inactive).

And the GI50 (ACHN)?
The GI50 was > 100 µM (inactive).

And the GI50 (MDA-N)?
The GI50 was > 100 µM (inactive).

What about the GI50 (HCT-116) of the same compound?
The GI50 was > 100 µM (inactive).

What about the GI50 (SF-295) of the same compound?
The GI50 was > 100 µM (inactive).

What about the GI50 (MOLT-4) of the same compound?
Its GI50 is > 100 µM (inactive).

What about the GI50 (NCI-H226) of the same compound?
Its GI50 is > 100 µM (inactive).

And the GI50 (HOP-62)?
The GI50 was > 100 µM (inactive).

And the GI50 (T47D)?
Its GI50 is 17.5 µM (inactive).

And the GI50 (A549)?
The GI50 was > 100 µM (inactive).

What about the GI50 (MCF7) of the same compound?
The GI50 was > 100 µM (inactive).

What about the GI50 (HCC 2998) of the same compound?
The GI50 was 89.5 µM (inactive).

And the GI50 (OVCAR-3)?
Its GI50 is > 100 µM (inactive).

And the GI50 (KM12)?
The GI50 was > 100 µM (inactive).

And the GI50 (SNB-75)?
The GI50 was > 100 µM (inactive).

What about the GI50 (SF-539) of the same compound?
The GI50 was > 100 µM (inactive).

And the GI50 (OVCAR-4)?
Its GI50 is > 100 µM (inactive).

What about the GI50 (MDA-MB-435) of the same compound?
The GI50 was > 100 µM (inactive).

What about the GI50 (SK-MEL-2) of the same compound?
Its GI50 is > 100 µM (inactive).

And the GI50 (UO-31)?
Its GI50 is 51.8 µM (inactive).

What about the GI50 (DU-145) of the same compound?
Its GI50 is > 100 µM (inactive).

And the GI50 (RPMI-8226)?
The GI50 was > 100 µM (inactive).

And the GI50 (OVCAR-5)?
The GI50 was > 100 µM (inactive).

And the GI50 (UACC-62)?
Its GI50 is > 100 µM (inactive).

What about the GI50 (EKVX) of the same compound?
Its GI50 is > 100 µM (inactive).

What about the GI50 (SF-268) of the same compound?
Its GI50 is > 100 µM (inactive).

And the GI50 (NCI/ADR-RES)?
Its GI50 is > 100 µM (inactive).

And the GI50 (Hs-578T)?
The GI50 was > 100 µM (inactive).

And the GI50 (NCI-H23)?
The GI50 was > 100 µM (inactive).

And the GI50 (786-0)?
Its GI50 is > 100 µM (inactive).

What about the GI50 (A498) of the same compound?
The GI50 was > 100 µM (inactive).

And the GI50 (SW-620)?
Its GI50 is > 100 µM (inactive).

What about the GI50 (SK-OV-3) of the same compound?
Its GI50 is > 100 µM (inactive).

What about the GI50 (K562) of the same compound?
The GI50 was > 100 µM (inactive).

What about the GI50 (SK-MEL-28) of the same compound?
Its GI50 is > 100 µM (inactive).

And the GI50 (NCI-H460)?
The GI50 was > 100 µM (inactive).

And the GI50 (BT-549)?
The GI50 was > 100 µM (inactive).

What about the GI50 (MDA-MB-231) of the same compound?
Its GI50 is > 100 µM (inactive).

What about the GI50 (UACC-257) of the same compound?
The GI50 was > 100 µM (inactive).

And the GI50 (IGROV-1)?
The GI50 was > 100 µM (inactive).

And the GI50 (M14)?
Its GI50 is > 100 µM (inactive).

What about the GI50 (SN12C) of the same compound?
Its GI50 is > 100 µM (inactive).

And the GI50 (HT-29)?
Its GI50 is > 100 µM (inactive).

What about the GI50 (HOP-92) of the same compound?
Its GI50 is > 100 µM (inactive).

What about the GI50 (OVCAR-8) of the same compound?
The GI50 was > 100 µM (inactive).

And the GI50 (RXF 393)?
The GI50 was > 100 µM (inactive).

Which GI50 (NCI-H522) does the source give for Cc1c2c(c(C)c3c4c(oc13)CCCC4)C=NCC2 here?
The GI50 was 16 µM (inactive).

What about the GI50 (HL-60) of the same compound?
The GI50 was 19.7 µM (inactive).

And the GI50 (TK-10)?
The GI50 was 12.1 µM (inactive).

And the GI50 (SK-MEL-5)?
The GI50 was 14.9 µM (inactive).

What about the GI50 (U-251) of the same compound?
Its GI50 is 13.1 µM (inactive).

What about the GI50 (COLO 205) of the same compound?
Its GI50 is 19.5 µM (inactive).

And the GI50 (SNB-19)?
The GI50 was 22.8 µM (inactive).

What about the GI50 (ACHN) of the same compound?
The GI50 was 15.8 µM (inactive).

What about the GI50 (HCT-116) of the same compound?
The GI50 was 14.9 µM (inactive).

What about the GI50 (SF-295) of the same compound?
The GI50 was 16.1 µM (inactive).

And the GI50 (MOLT-4)?
Its GI50 is 7.89 µM (inactive).

And the GI50 (NCI-H226)?
The GI50 was 14.2 µM (inactive).

And the GI50 (HOP-62)?
Its GI50 is 32.2 µM (inactive).

And the GI50 (T47D)?
Its GI50 is 35.6 µM (inactive).

And the GI50 (A549)?
The GI50 was 17 µM (inactive).

What about the GI50 (MCF7) of the same compound?
The GI50 was 16.1 µM (inactive).

And the GI50 (HCC 2998)?
The GI50 was 21.1 µM (inactive).

What about the GI50 (OVCAR-3) of the same compound?
Its GI50 is 14.9 µM (inactive).

And the GI50 (KM12)?
Its GI50 is 16.1 µM (inactive).

And the GI50 (SNB-75)?
Its GI50 is 15.8 µM (inactive).

And the GI50 (SF-539)?
Its GI50 is 15.2 µM (inactive).

What about the GI50 (OVCAR-4) of the same compound?
Its GI50 is 22.3 µM (inactive).

What about the GI50 (MDA-MB-435) of the same compound?
The GI50 was 14.4 µM (inactive).

What about the GI50 (HCT-15) of the same compound?
The GI50 was 13.9 µM.

What about the GI50 (SK-MEL-2) of the same compound?
The GI50 was 17.1 µM (inactive).

And the GI50 (UO-31)?
The GI50 was 13.1 µM (inactive).

What about the GI50 (DU-145) of the same compound?
The GI50 was 15 µM (inactive).

What about the GI50 (RPMI-8226) of the same compound?
Its GI50 is 0.818 µM (active).

And the GI50 (OVCAR-5)?
The GI50 was 16.8 µM (inactive).

What about the GI50 (UACC-62) of the same compound?
Its GI50 is 15 µM (inactive).

And the GI50 (EKVX)?
The GI50 was 12.7 µM (inactive).

And the GI50 (SF-268)?
The GI50 was 20.2 µM (inactive).

What about the GI50 (NCI/ADR-RES) of the same compound?
Its GI50 is 15.4 µM (inactive).

What about the GI50 (CAKI-1) of the same compound?
The GI50 was 13.2 µM (inactive).

What about the GI50 (Hs-578T) of the same compound?
Its GI50 is 17 µM (inactive).

What about the GI50 (NCI-H23) of the same compound?
The GI50 was 16.2 µM (inactive).

What about the GI50 (786-0) of the same compound?
Its GI50 is 35.2 µM (inactive).

What about the GI50 (A498) of the same compound?
The GI50 was 17 µM (inactive).

And the GI50 (SR)?
Its GI50 is 6.58 µM (inactive).

And the GI50 (SW-620)?
Its GI50 is 21.3 µM (inactive).

What about the GI50 (SK-OV-3) of the same compound?
Its GI50 is 20.7 µM (inactive).

And the GI50 (Malme-3M)?
The GI50 was 16 µM (inactive).

And the GI50 (K562)?
Its GI50 is 11.1 µM (inactive).

And the GI50 (SK-MEL-28)?
The GI50 was 18.9 µM (inactive).

And the GI50 (LOX IMVI)?
Its GI50 is 20.5 µM (inactive).

And the GI50 (NCI-H460)?
Its GI50 is 15.8 µM (inactive).

What about the GI50 (BT-549) of the same compound?
Its GI50 is 16.8 µM (inactive).

What about the GI50 (MDA-MB-231) of the same compound?
Its GI50 is 16.4 µM (inactive).

What about the GI50 (UACC-257) of the same compound?
The GI50 was 14.7 µM (inactive).

What about the GI50 (CCRF-CEM) of the same compound?
The GI50 was 12.1 µM (inactive).

And the GI50 (IGROV-1)?
The GI50 was 13.6 µM (inactive).

And the GI50 (M14)?
The GI50 was 20.2 µM (inactive).

What about the GI50 (SN12C) of the same compound?
Its GI50 is 15.8 µM (inactive).

And the GI50 (HT-29)?
The GI50 was 6.64 µM (inactive).

And the GI50 (HOP-92)?
The GI50 was 11.5 µM (inactive).

What about the GI50 (OVCAR-8) of the same compound?
The GI50 was 10.6 µM (inactive).

What about the GI50 (RXF 393) of the same compound?
Its GI50 is 3.66 µM (inactive).
